The numbers were not newly measured in patent EP0495131B1, “AGENT FOR PREVENTING AND TREATING HEPATITIS” (priority 1990, dated 1992), which cites them from elsewhere.

This series concerns hepatitis, especially B-type hepatitis. Conditions: percentage of patients in which antigen is converted into negative and antibody into positive; anti-virus agents for hepatitis.

The structures appear in SMILES notation.

Take `Nc1nc2c(ncn2COCCO)c(=O)[nH]1` [acyclovir]: the “rate of the seroconversion (SC rate)” value was “about 27%”. Take `Nc1ncnc2c1ncn2[C@@H]1O[C@H](CO)[C@@H](O)[C@@H]1O` [Ara-A, adenine arabinoside]: the “rate of the seroconversion (SC rate)” value was 0-30%.
